Reference: PMC8305652, “Copper(II) Complexes Containing Natural Flavonoid Pomiferin Show Considerable In Vitro Cytotoxicity and Anti-inflammatory Effects” (International Journal of Molecular Sciences, 2021)

What was measured:
[1] = tested on: colorectal adenocarcinoma (Caco-2); assay: in vitro cytotoxicity, MTT assay; assay type: cell-based, human; settings: at least three independent experiments
[2] = tested on: NF-κB/AP-1 in THP-1-XBlue-MD2-CD14 cells; assay: LPS-stimulated NF-κB/AP-1 activity, SEAP reporter; assay type: cell-based, human; settings: read 24 h after LPS; for inhibition of LPS-stimulated NF-κB/AP-1 activation: complexes applied at 200 nM and 50 nM, 1 h pre-treatment
Procedure: The activity of transcription factors NF-κB/AP-1 was evaluated using the THP-1-XBlue^TM-MD2-CD14 cell line [obtained from Invivogen (San Diego, CA, USA)], expressing an NF-κB/AP-1-inducible secreted embryonic alkaline phosphatase (SEAP) reporter gene, as was described previously. The complexes 1–5 were applied to the cells at the concentrations of 200 nM and 50 nM, pomiferin (at 200 nM), and a reference drug prednisone at 1 μM, respectively. Lipopolysaccharide (LPS) from E. coli 0111:B4 (Sigma-Aldrich) dissolved in PBS was used to trigger an inflammation-like reaction. The activity of the SEAP was determined by Quanti-Blue^TM reagent (Invivogen, San Diego, CA, USA) according to the manufacturer’s instructions 24 h after lipopolysaccharide stimulation. The activity of NF-κB/AP-1 was determined spectrophotometrically using the FLUOstar Omega microplate reader (BMG Labtech, Ortenberg, Germany) at 655 nm and compared with that of the vehicle.

NF-κB = tested on: NF-κB; set-up: method as in PMID 23947936; settings: 1.25 µM; cited from earlier work
[3] = tested on: caspases 3/7 in A2780 cells; assay: activation of caspases 3/7, flow cytometry; assay type: cell-based, human; settings: A2780, 15 µM, 24 h
Procedure: Both methods were performed according to the manufacturers’ protocols with 1 modification in the caspase induction assay, which was the use of the CellEvent^TM Caspase-3/7 Green Detection Reagent only for detection of Caspase-3/7 activation. […] After 24 h, the cells were washed once with PBS (0.1 M, pH 7.4), detached with trypsin (0.25% in ethylenediaminetetraacetic acid (EDTA), Sigma-Aldrich), resuspended in 500 µL of the culture medium and divided into 2 separate tubes, the first for apoptosis assay and the second one for caspase activation analysis. After staining with appropriate dyes, samples were analyzed on a BD FACSVerse flow cytometer (Becton Dickinson, Franklin Lakes, NJ, USA) in 3 separate experiments, while at least 10^4 events were recorded for each sample prepared in duplicate.

[4] = tested on: NF-κB in differentiated THP-1 macrophages; assay: immunocytochemical analysis of NF-κB nuclear translocation; assay type: cell-based, human; settings: 200 nM, 1 h pre-treatment, 1 h LPS (1 µg/mL), fluorescence microscopy
Procedure: To differentiate the THP-1 monocytes to macrophages, phorbol myristate acetate (PMA) was used at the final concentration of 50 ng/mL. The cells were split into 8-well cell culture glass slides (SPL, Gyeonggi-do, South Korea) at a concentration of 3 × 10^5 cells/300 µL/well. Monocytes were differentiated by PMA treatment for 24 h and then the medium was changed. Macrophages were washed with PBS, transferred into a serum-free medium and incubated for 2 h. After 1 h pre-treatment with 5 (200 nM), prednisone (200 nM) or 0.1% DMF (v/v) solution used as a control, NF-κB nuclear translocation was triggered by the addition of LPS (1 µg/mL). The macrophages were washed with PBS and fixed with 4% formaldehyde 1 h later. Permeabilization was performed using 0.1% v/v Triton X-100 (Merck). After blocking with 3% bovine serum albumin (BSA; Merck, Darmstadt, Germany) dissolved in PBS, the primary antibody anti-NF-κB p65 (Abcam, Cambridge, UK, product No. ab16502) was added at a concentration of 2.5 µg/mL and incubated at 4 °C overnight. Then a secondary anti-rabbit antibody labelled by Alexa Fluor 488® (Cell Signalling, Danvers, MA, USA) product No. 4412, dilution 1:1500) was applied in dark at 4 °C for 1 h. […] The NF-κB migration activity was evaluated by fluorescent microscopy after the nail polish cured using the fluorescence microscope IX73 (Olympus, Tokyo, Japan).

[5] = tested on: TNF-α in differentiated THP-1 macrophages; assay: TNF-α secretion, ELISA; assay type: cell-based, human; settings: 200 nM, 1 h pre-treatment, LPS 1 µg/mL, 24 h
Procedure: Differentiated THP-1 macrophages (see above) were pre-treated with either 200 nM solutions of the tested complexes, or 200 nM solution of prednisone dissolved in 0.1% DMF or the vehicle (0.1% (v/v) DMF solution) for 1 h, as described previously. The concentration of TNF-α was measured using a Human TNF-α ELISA Kit (Diaclone, Besançon, France), according to the manufacturer’s manual. Each experiment was conducted in triplicate.

[6] = tested on: IκB and MAPKs p38, ERK1/2, JNK in THP-1 macrophages; assay: IκB and MAPK signalling pathways, Western blot; assay type: cell-based, human; settings: 200 nM, 1 h pre-treatment, 30 min after LPS
Procedure: Macrophages derived from THP-1 cells were used to evaluate the influence of tested complexes on the signalling pathway leading to activation of transcription factors NF-κB and AP-1. To differentiate THP-1 monocytes into macrophages, the cells were stimulated with phorbol myristate acetate (PMA), as described above. The level of inhibitor of NF-κB (IĸB) and phosphorylation (activation) of mitogen-activated protein kinases (MAPKs) p38, ERK1/2, and JNK was determined in a way similar to that described previously. Above mentioned proteins were detected by the following primary antibodies: anti-IĸB-α at the dilution 1:500 (Cell Signalling, Danvers, MA, USA; products No. 4814), anti-phospho-SAPK/JNK at the dilution 1:500 (Cell Signalling; products No. 4668), anti-p44/42 MAPK (ERK1/2) at the dilution 1:1000 (Cell Signalling; products No. 4695), anti-phospho-p44/42 MAPK (ERK1/2) at the dilution 1:1000 (Cell Signalling; products No. 4370), anti-p38 MAPK at the dilution 1:1000 (Cell Signalling; products No. 9212), anti-phospho-p38 MAPK antibodies at the dilution 1:1000 (Cell Signalling; products No. 4511), anti-SAPK/JNK at a dilution of 1:250 (Sigma-Aldrich, product No. SAB4200176), and anti-β-actin at a dilution of 1:5000 (Abcam, Cambridge, UK; product No. 8226). […] The amount of bound secondary antibody was determined using ECL reagent (Bio-Rad, Hercules, CA, USA). […]

Compound | IC50 ([1]; Homo sapiens, Caco-2, mean ± SD) [µM] | effect on LPS-stimulated NF-κB/AP-1 activity at 50 nM [2] | NF-κB activation by inhibition of IκB degradation (NF-κB) | IC50 ([1]; mean ± SD) [µM] | activation of executioner caspases 3/7 [3] | inhibition of LPS-stimulated NF-κB/AP-1 activation [2] | NF-κB nuclear translocation [4] | secretion of TNF-α [5] | IκB and MAPK intracellular signalization [6]
CC(C)=CCc1c2c(c3occ(-c4ccc(O)c(O)c4)c(=O)c3c1O)C=CC(C)(C)O2 [pomiferin, 3-(3,4-dihydroxyphenyl)-5-hydroxy-8,8-dimethyl-6-(3-methylbut-2-ene-1-yl)-4H,8H-benzo[1,2-b:3,4-b′]dipyran-4-one] | 19.8 ± 2.4 | slightly increased | inhibited NF-κB activation | – | – | – | – | – | –
CC(C)=CCc1c2c(c3occ(-c4ccc(O)c(O)c4)c(=O)c3c1[O-])C=CC(C)(C)O2.CO.O=[N+]([O-])[O-].[Cu+2].c1ccc(-c2ccnc3c2ccc2c(-c4ccccc4)ccnc23)cc1 [Complex 4, (3-(3,4-dihydroxyphenyl)-8,8-dimethyl-6-(3-methylbut-2-en-1-yl)-4H,8H-benzo[1,2-b:3,4-b′]dipyran-4-one-5-olato-κ^2O4:O5)(4,7-diphenyl-1,10-phenanthroline–κ^2N:N)copper(II) nitrate methanol solvate] | – | – | – | 22.9 ± 12.9 | significantly increase the antiproliferative effects over the free pomiferin and reference drug cisplatin | able to inhibit | blocked the nuclear translocation | did not affect the TNF-α synthesis | –
(3-(3,4-dihydroxyphenyl)-8,8-dimethyl-6-(3-methylbut-2-en-1-yl)-4H,8H-benzo[1,2-b:3,4-b′]dipyran-4-one-5-olato-κ^2O4:O5)(dipyrido[3,2-a:2′,3′-c]phenazine–κ^2N4:N5)copper(II) nitrate methanol solvate [Complex 5] | – | active | – | – | – | able to inhibit | the NF-κB levels in the nucleus decreased | decreased its production | did not affect the intracellular signalization
CC(C)=CCc1c2c(c3occ(-c4ccc(O)c(O)c4)c(=O)c3c1[O-])C=CC(C)(C)O2.Cc1ccnc(-c2cc(C)ccn2)c1.O.O.O=[N+]([O-])[O-].[Cu+2] [Complex 2, (3-(3,4-dihydroxyphenyl)-8,8-dimethyl-6-(3-methylbut-2-en-1-yl)-4H,8H-benzo[1,2-b:3,4-b′]dipyran-4-one-5-olato-κ^2O4:O5)(4,4′-dimethyl-2,2′-bipyridine–κ^2N:N)copper(II) nitrate dihydrate] | – | – | – | 5.1 ± 1.6 | – | able to inhibit | – | decreased its production | did not affect the intracellular signalization
